# From patent publication US11465972B2, “Inhibitors of oxidized low-density lipoprotein receptor 1 and methods of use thereof” (United States Government as represented by the Department …, priority 2015, dated 2022)
# “Also recorded” adds a separate entry of the source.
# Columns and labels:
# Format in all cases: cell-based, human
# [1] = test system: VCAM-1 protein expression; assay: ox-LDL-induced VCAM-1 protein expression in HUVECs (Western blotting); settings: 200 nM, 5 μg/ml ox-LDL
# Method: (§1) FIG. 4A, FIG. 4B, FIG. 4C, FIG. 4D and FIG. 4E depict the effect of lead molecules on ox-LDL-induced the activation of MAPKs in HUVECs, VCAM-1 expression and monocyte adhesion onto HUVECs. […] (FIG. 4B) Western blot analyses showing phospho-p38MAPK expression in HUVECs following exposure to 200 nM of each compound for 30 min, and subsequently exposed to 5 μg/mL ox-LDL for 6 hours. […] (FIG. 4D) The variation of VCAM-1 mRNA expression levels with different concentrations of the led compounds. The concentrations are indicated on the X-axis and the VCAM-1 mRNA levels are shown on the Y-axis. The plots for all five molecules are shown in separate colors. […] Graphs show data as mean (±SD); n=3 (for Western blot and PCR assays) or n=20 (for monocyte adhesion assay). *P<0.01 vs. control; #P<0.01 or <0.05 vs. ox-LDL group.
# It is known that the activation of LOX-1 by ox-LDL in endothelial cells stimulates the expression of leukocyte adhesion molecules^26. In this study, VCAM-1 expression in HUVECs in the presence of 5 μg/ml ox-LDL was measured. […] VCAM-1 mRNA expression in HUVECs exposed to 5 μg/mL ox-LDL for 6 hrs was also measured.
# (§2) HUVECs were plated into 6-well cell culture plates. When the cells were reached 70% confluence, they were treated with 200 nM of each of 5 molecules for 30 min, and subsequently exposed to […] ox-LDL for 6 h. After washing with PBS for 2 times, the cells were treated with Cell Lysis Buffer (Promega, Madison, Wis.) with protease Inhibitor and phosphatase Inhibitor (Sigma-Aldrich, St. Louis, Mo.). The protein concentrations were measured by Bradford protein assay. Proteins (20 tg) were separated by electrophoresis in 12% precast SDS-PAGE gels, and were transferred onto Nitrocellulose Blotting Membrane (GE Healthcare Life Science, Piscataway, N.J.). The membranes were then incubated with LOX-1, VCAM-1 (Abcam, Cambridge, Mass.), ERK1/2, phospho-ERK1/2, phospho-p38MAPK (Cell Signaling Technology, Inc., Danvers, Mass.), or […] (Santa Cruz Biotechnology, Inc., Dallas, Tex.) primary antibodies (1:1000˜1:2000) in blocking solution at 4° C. overnight. Following wash with TBS-1 for 3 times, the blots were incubated with HRP-conjugated secondary antibodies (1:10000) in blocking solution for 1 hour at room temperature. After 3 washes with PBS, the blots were treated with Western Blotting Luminol Reagents (Santa Cruz Biotechnology) for 3 min and then exposed to Blue Basic Autorad Film (GeneMate, Kaysville, Utah). The protein bands were scanned by a Gel Doc™ XR System (Bio-Rad, Hercules, Calif.), and the density of each band was quantified by Image J software. The relative expression of target proteins was calculated with comparison to […] bands.
# P38 MAPK = assay: ox-LDL-induced activation (phosphorylation) of P38 MAPK in HUVECs (Western blotting); settings: 200 nM
# Method: as §1
# (§3) To assess downstream effects of each candidate molecule, ox-LDL induced expression and activation of ERK1/2 and P38MAPK was measured in HUVECs in the absence or presence of each candidate molecule (200 nM). […] Importantly, unphosphorylated MAPKs were not affected by any of the candidate molecules.
# as §2
# LOX-1 protein expression = assay: ox-LDL-induced LOX-1 protein expression in HUVECs (Western blotting); settings: 200 nM, 5 μg/ml ox-LDL
# Method: (§4) FIG. 3A, FIG. 3B, FIG. 3C and FIG. 3D depict the inhibitory effect of the lead compounds on Dil-ox-LDL uptake by HUVECs and CHO cells (measured by flow cytometry) and the effect of the lead compounds on ox-LDL-induced LOX-1 mRNA and protein expression. (FIG. 3A) (Upper Panel) Flow cytometry measurements using HUVECs in the presence of the five lead compounds (Mol-1-Mol-5), each a at 200 nM concentration. (Lower Panel) The percentage of internalized ox-LDL. Graphs show data as mean (±SD); n=4. *P<0.01 or <0.05 vs. control. (FIG. 3B) IC50 value for Mol-5. IC50 value (in nM) is based on inhibition of Dil-ox-LDL uptake in CHO cells overexpressing human LOX-1. Graphs show data as mean (±SD); n=5. *P<0.01 or <0.05 vs. control. (FIG. 3C) Western blotting assay showing LOX-1 protein expression in HUVECs following incubation with 200 nM Mol-1 to Mol-5 for 30 min, and subsequently exposure to 5 μg/mL ox-LDL for 6 hours. (FIG. 3D) The variation of LOX-1 mRNA expression levels at different concentrations of the compounds following exposure of HUVECs to 5 μg/mL ox-LDL. The concentrations are indicated on the X-axis and the LOX-1 mRNA levels are shown on the Y-axis. The plots for all the five molecules are shown in separate colors. Graphs show data as mean (±SD); n=3. *P<0.01 vs. control; #P<0.01 vs. ox-LDL group.
# Internalization of ox-LDL via binding to LOX-1 activates endothelial cells and upregulates the expression of LOX-1^2. In this study, it was tested if the lead molecules would inhibit LOX-1 expression. Accordingly, LOX-1 protein expression in HUVECs was measured by Western blotting.
# HUVECs were plated into 6-well cell culture plates. […] The protein concentrations were measured by Bradford protein assay. […] The protein bands were scanned by a Gel Doc™ XR System (Bio-Rad, Hercules, Calif.), and the density of each band was quantified by Image J software. The relative expression of target proteins was calculated with comparison to […] bands.
# ERK1/2 = assay: ox-LDL-induced activation (phosphorylation) of ERK1/2 in HUVECs (Western blotting); settings: 200 nM
# Method: as §1, §3, §2
# LOX-1 mRNA = assay: ox-LDL-induced LOX-1 mRNA expression in HUVECs (q-PCR); settings: for effect on ox-LDL-induced LOX-1 mRNA upregulation / LOX-1 transcription (in words): 5 μg/ml ox-LDL 6 h, 20, 200, 2000 nM; for reduction of LOX-1 transcription: 200 nM concentration
# Method: as §4
# LOX-1 mRNA levels in HUVECs treated with ox-LDL in the absence or presence of the lead molecules at varying concentrations was also measured.
# HUVECs were plated into 12-well plates, and treated with 0, 20, 200 and 2000 nM of each of 5 molecules […] for 30 min, and subsequently exposed to […] ox-LDL for 6 h at 37° C. Total RNA was isolated from the treated HUVECs by using a RNeasy Mini-Kit […] according to the manufacturer's instructions. Prior to using, RNA was treated with DNase I and diluted to 100 ng/tL. 100 ng RNA was applied to synthesize cDNA with SuperScript III 1st Strand DNA Synthesis Kit. qPCR was performed using the Applied Biosystems Fast 7500HT real-time PCR system with a 20 tL reaction volume including 10 tL GoTaq qPCR Master Mix (Promega, Madison, Wis.), 100 ng of cDNA and 0.3 tM primers. Data was analyzed by using MX3000P software. Relative mRNA expression was quantified using the comparative threshold cycle (Ct) method. The sequences of primers used for PCR reaction have been described previously^30.
SMILES,effect on ox-LDL-induced VCAM-1 protein expression [1],effect on ox-LDL-induced activation of P38 MAPK (in words) (P38 MAPK),reduction of the level of phospho-P38 MAPK (P38 MAPK),effect on ox-LDL-induced LOX-1 protein expression (LOX-1 protein expression),effect on ox-LDL-induced activation/phosphorylation of ERK1/2 (in words) (ERK1/2),effect on ox-LDL-induced LOX-1 mRNA upregulation / LOX-1 transcription (in words) (LOX-1 mRNA),effect on ox-LDL-induced VCAM-1 protein expression ([1]; listed as MoL-4),effect on ox-LDL-induced activation/phosphorylation of ERK1/2 (in words) (ERK1/2; listed as MoL-4),reduction of LOX-1 transcription (LOX-1 mRNA) [%]
CCOCCCNC(=O)CCN1C(=O)COc2ccccc21 [Mol-1],significantly reduced,significantly inhibited,around 60%,significantly reduced,significantly inhibited; also recorded: moderately,–,–,–,–
CC(C)(C)C(=O)NCCc1nc2ccccc2n1Cc1ccccc1F [Mol-2],–,no significant effect,–,–,no significant effect,no significant effect,–,–,–
CCCn1c(CCNC(=O)CCCO)nc2ccccc21 [Mol-4],significantly inhibited,significantly inhibited,around 60%,significantly reduced,potently reduced,significantly reduced,significantly reduced,significantly inhibited,47
"Cc1cc(C)n(CC(O)COc2ccccc2)n1 (stereo not drawn) [Mol-5, 1-(3,5-dimethyl-1H-pyrazol-1-yl)-3-phenoxypropan-2-ol]",significantly reduced; also recorded: significantly inhibited,significantly inhibited; also recorded: maximum inhibition,75%,significantly reduced,significantly inhibited; also recorded: maximum inhibition; also recorded: potently reduced,significantly reduced,–,–,70
